Here are results for 91 compounds from PubChem BioAssay AID1645866 (Buhrlage Lab, Dana-Farber Cancer Institute and Novartis …, 2021).

The target of the assay is Ubiquitin carboxyl-terminal hydrolase 28 (Homo sapiens) (UniProt Q96RU2). As to the kind of experiment: Concentration-response biochemical assay confirming initial hits as inhibitors of ubiquitin-specific protease 28 (AID 1645866). Conditions: purified USP28, ubiquitin-rhodamine fluorescence, 30 min.

The source made the active and inactive calls.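 The calls were made as follows: active = in confirmatory dose-response testing, peak deubiquitinase inhibition of 30% or more; inactive = the rest.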

As usually defined, the IC50 is the concentration at which inhibition is half-maximal.

Chain of Ubiquitin carboxyl-terminal hydrolase 28 (Homo sapiens) (Q96RU2 whole entry, looked up): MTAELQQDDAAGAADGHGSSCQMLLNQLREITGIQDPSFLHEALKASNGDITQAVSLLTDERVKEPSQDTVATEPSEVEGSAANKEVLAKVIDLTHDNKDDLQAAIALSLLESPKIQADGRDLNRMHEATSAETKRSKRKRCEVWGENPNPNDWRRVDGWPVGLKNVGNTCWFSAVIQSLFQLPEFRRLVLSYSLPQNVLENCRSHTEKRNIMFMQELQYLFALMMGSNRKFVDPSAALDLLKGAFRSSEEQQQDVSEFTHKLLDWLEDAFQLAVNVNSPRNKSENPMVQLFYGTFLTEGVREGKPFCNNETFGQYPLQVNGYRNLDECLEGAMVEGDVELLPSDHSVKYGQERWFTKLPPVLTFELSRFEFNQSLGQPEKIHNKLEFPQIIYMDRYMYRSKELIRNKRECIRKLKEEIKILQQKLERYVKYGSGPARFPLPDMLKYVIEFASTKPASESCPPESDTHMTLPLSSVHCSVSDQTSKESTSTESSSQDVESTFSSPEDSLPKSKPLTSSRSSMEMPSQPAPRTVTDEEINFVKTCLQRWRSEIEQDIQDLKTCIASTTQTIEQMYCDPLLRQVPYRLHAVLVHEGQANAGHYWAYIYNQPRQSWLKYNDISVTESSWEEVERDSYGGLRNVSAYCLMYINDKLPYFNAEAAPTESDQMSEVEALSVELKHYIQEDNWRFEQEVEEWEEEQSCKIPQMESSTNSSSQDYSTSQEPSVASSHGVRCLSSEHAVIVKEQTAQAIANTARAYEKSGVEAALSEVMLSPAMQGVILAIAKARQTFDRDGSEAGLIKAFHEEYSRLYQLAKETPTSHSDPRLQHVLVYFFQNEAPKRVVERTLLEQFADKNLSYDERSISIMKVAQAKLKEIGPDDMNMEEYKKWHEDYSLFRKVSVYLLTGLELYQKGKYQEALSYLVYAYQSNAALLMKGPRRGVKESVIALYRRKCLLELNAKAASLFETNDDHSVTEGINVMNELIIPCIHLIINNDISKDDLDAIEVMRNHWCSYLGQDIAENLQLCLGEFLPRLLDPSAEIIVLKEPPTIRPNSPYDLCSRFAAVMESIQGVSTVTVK

Consider `CCC(C)NC(=O)Cn1c(=O)n(-c2ccccc2)c(=O)c2ccc(C(=O)NCc3ccco3)cc21` (stereo unspecified), for which the IC50 was 37.9 µM.

Turning to `Cc1noc(C)c1COc1cccc(C(=O)Nc2cc(Cl)ccc2-n2cncn2)c1`, the IC50 is > 50 µM (inactive).

For the compound `O=C(COc1nc2ccccc2nc1N1CCOCC1)NC(c1ccccc1)c1ccccc1`, the IC50 was > 50 µM (inactive).

Take `COc1ccc(CNC(=O)Nc2cccc3ccccc23)cc1`: the IC50 was 9.99 µM.

In the case of `CN(CCCNC(=O)c1cccc2c1SCCC2=O)c1ccccc1`, the IC50 is > 50 µM (inactive).

For `Fc1cccc(-n2cc(-c3noc(-c4ccccn4)n3)nn2)c1`, the half-inhibitory concentration (IC50) was 23.7 µM.

Take `Cc1nn(C)c2c1[C@@H](c1ccc(F)c(Br)c1)[C@H](NC(=O)c1ccccc1)C(=O)N2`: the IC50 is 3.79 µM.

Consider `NC(=O)Cn1c(=O)n(Cc2ccc(C(=O)NC3CCCC3)cc2)c(=O)c2ccccc21`, for which the IC50 was > 50 µM (inactive).

Consider `CCN1C(=O)COc2ccc(NC(=O)c3ccc(OCc4nonc4C)cc3)cc21`, for which the IC50 was 4.85 µM.

`CC1CCCCN1CCCNC(=O)c1ccc(N2CCc3ccccc32)s1` (stereo unspecified): the IC50 is 10.6 µM.

Regarding `Cc1cccc(N2C(=O)/C(=C\c3ccc4c(c3)OCCO4)c3ccccc3C2=O)c1`, the 50% inhibitory concentration (IC50) was 19.2 µM.

As for `CCCCN1CC(C(=O)Nc2ccc(C(=O)Nc3ccc(Cl)cc3)cc2)CC1=O` (stereo unspecified), the half-inhibitory concentration (IC50) was 10.5 µM.

As to `COc1ccc(CNC(=O)CSc2nc3nc(C)ccc3o2)cc1`, the IC50 is 31.3 µM.

Consider `CS(=O)(=O)N1CCCc2cc(C(=O)Nc3ccc4c(c3)OCO4)ccc21`, for which the IC50 is 4.54 µM.

Turning to `O=C(CCc1c[nH]c2ccccc12)Nc1ccc(N2CCOCC2)cc1`, the IC50 was 24.9 µM.

On to `CC(C)NC(=O)Cn1ccn2nc(-c3ccc(Cl)cc3)cc2c1=O`, for which the IC50 is 8.61 µM.

For the compound `COc1cccc(NC(=O)c2cnc3c(c2)c(=O)n(C)c(=O)n3C)c1`, the IC50 is 2.43 µM.

For the compound `Nc1nc(OCc2ccccc2)c2[nH]c(/C=C/c3cccs3)nc2n1`, the IC50 was 24.9 µM.

For `O=C(NCc1ccc(Cl)cc1)c1ccc(N2CCCS2(=O)=O)cc1`, the IC50 is > 50 µM (inactive).

On to `O=C(COc1cccc2ccc(N3CCC(Cc4ccccc4)CC3)nc12)NCc1ccc(F)cc1`, for which the IC50 is 20.7 µM.

On to `CC(OC(=O)c1ccc2c(c1)OCCO2)C(=O)NCC1CCCCC1` (stereo unspecified), for which the IC50 was 26.1 µM.

As to `O=C1CC(O)C(O)c2cccc(O)c21` (stereo unspecified), the half-maximal inhibitory concentration (IC50) was 23.6 µM.

Regarding `O=C(CCc1nnc2n(Cc3ccccc3Cl)c(=O)c3ccccc3n12)NCc1ccccn1`, the IC50 is 23.4 µM.

For `COc1ccc(-c2cc(C(C)=O)c(C)n2CCC(=O)Nc2ccc(OC)cc2OC)cc1`, the IC50 is 43.1 µM.

Regarding `CCC(=O)Nc1ccc(-c2nc(Cn3cc(C)cn3)c(C)o2)cc1`, the IC50 is 3.7 µM.

For the compound `Cc1cc(-c2cnc(N(C)C)nc2-c2ccc(CNC(=O)Cc3ccc(F)cc3)cc2)on1`, the IC50 is 28.7 µM.

With `COc1ccc(NC(=O)c2sc(N3CCOCC3)nc2-c2ccccc2)c(OC)c1`, the 50% inhibitory concentration (IC50) was 17 µM.

With `CCc1ccc(C(C)NC(=O)C2CCN(c3ccc4nncn4n3)CC2)cc1` (stereo unspecified), the IC50 is 16.4 µM.

For the compound `O=C(Nc1ccc2c(c1)N(C(=O)C1CCCC1)CC2)c1c(F)cccc1F`, the IC50 is 0.15 µM.

With `CCOc1ccccc1NC(=O)Cn1c(=O)n(CCCC(=O)NCc2ccc(C)cc2)c(=O)c2sccc21`, the concentration for half-maximal inhibition (IC50) was 1.98 µM.

For `O=C(Nc1ccc(N2CCOCC2)cc1)c1cc(=O)[nH]c2ccccc12`, the IC50 was 25.4 µM.

With `O=C(OCc1cccc(Cl)c1)c1ccc2ccccc2n1`, the IC50 is 0.36 µM.

`C[C@@H]1OC2=C(C(=O)c3cccc(O)c3C2=O)[C@H](O)[C@@H]1O`: the IC50 is 2.79 µM.

Consider `Cc1ccc(-n2cc3c(N4CCCC(C(=O)NCC5CCCCC5)C4)ncnc3n2)cc1` (stereo unspecified), for which the IC50 was > 50 µM (inactive).

Turning to `Cc1cccc(-n2cnc(C(=O)NCc3ccc(F)cc3)c2)n1`, the IC50 is 35.6 µM.

Take `CC(=O)Nc1ccc(-n2cnc(C(=O)NCc3ccc(C)cc3)c2)nc1`: the IC50 was 19.1 µM.

In the case of `Nc1ccccc1SCc1noc(-c2cccs2)n1`, the IC50 is 6.61 µM.

As to `O=C1N(Cc2ccc(F)cc2)CCN1c1ccc(C(F)(F)F)cn1`, the IC50 was 4.67 µM.

On to `Cc1ccc(OC(=O)c2cn(-c3ccccc3)nc2-c2cccnc2)cc1`, for which the IC50 was > 50 µM (inactive).

`O=C(NCc1cccc(NC(=O)C2CC2)c1)Nc1cccc2ccccc12`: the IC50 is 20.5 µM.

Take `COc1ccc(C2C(C(=O)C(C)(C)C)N3c4ccccc4C=CC3C23C(=O)c2ccccc2C3=O)c(OC)c1` (stereo unspecified): the IC50 was > 50 µM (inactive).

Take `O=S(=O)(c1ccc2c(c1)OCCO2)N(Cc1ccccc1)Cc1nnc(-c2ccccc2)o1`: the IC50 is > 50 µM (inactive).

Take `O=C(CCCCn1c(=O)c2ccccc2n(CC(=O)Nc2ccc(F)c(Cl)c2)c1=O)NCc1ccco1`: the IC50 was > 50 µM (inactive).

In the case of `CCOc1ccccc1NC(=O)COC(=O)C(c1ccccc1)c1ccccc1`, the IC50 is > 50 µM (inactive).

With `COc1ccccc1CC(=O)Nc1nc2ccccc2[nH]1`, the IC50 is 37.1 µM.

In the case of `Cc1cccc(C(=O)Nc2cccc(SC(C(=O)Nc3ccc(Cl)c(C(=O)O)c3)c3ccccc3)c2)c1` (stereo unspecified), the IC50 was 15.3 µM.

Take `O=C1/C(=C/c2cn(-c3ccccc3)nc2-c2ccc3c(c2)OCCO3)Cc2ccccc21`: the IC50 was > 50 µM (inactive).

As for `CCn1c(SCC(=O)c2c(N)n(CC(C)C)c(=O)n(C)c2=O)nnc1-c1ccccc1`, the IC50 is 13.9 µM.

In the case of `O=C(NCc1ccc2c(c1)OCO2)c1[nH]nc2c1COc1ccccc1-2`, the IC50 is 7.75 µM.

As to `CC1CCN(c2cc(-n3cnc(C(=O)N4CCCC(C)C4)c3)ncn2)CC1` (stereo unspecified), the IC50 is 10.1 µM.

For `CCC(=O)N1c2ccccc2NC2=C(C(=O)CC(c3ccccc3OCc3ccccc3)C2)C1c1ccccc1` (stereo unspecified), the IC50 was 4.53 µM.

In the case of `CC1CCN(c2cc(-n3cnc(C(=O)N4CCCCC4)c3)ncn2)CC1`, the IC50 is 25.9 µM.

With `Cc1cc(NC(=O)Cn2c(=O)n(CCCCC(=O)NCc3ccco3)c(=O)c3ccccc32)ccc1Br`, the IC50 is 2.36 µM.

As for `N[C@@H](Cc1ccccc1)C(=O)N1CCC2(CC1)CN(C(=O)c1ccc(Cl)cc1)CCO2`, the IC50 is > 50 µM (inactive).

With `CCOC(=O)c1cnn(-c2ccc(C(=O)Nc3ccc(C)c(Cl)c3)cc2)c1N`, the concentration for half-maximal inhibition (IC50) is 5.47 µM.

Take `Cc1cccc(-c2nc3n(CC(=O)Nc4ccc(Cl)cc4)c(C)cc(=O)n3n2)c1`: the half-inhibitory concentration (IC50) was 0.985 µM.

Turning to `Cc1nc(-c2noc(-c3ccncc3)n2)cn1CC(=O)N1CCN(c2ccc(F)cc2)CC1`, the IC50 is 37.6 µM.

Regarding `COc1ccc(NC(=O)c2nnn(-c3ccccc3F)c2C)cc1OC`, the IC50 is 2.61 µM.

Consider `Cc1c(C)n(-c2ccccc2)c2ncn(CC(=O)NC(C)c3ccccc3)c(=O)c12` (stereo unspecified), for which the IC50 was 16.7 µM.

As to `Cc1cc(-n2c(C)cc(-c3csc(N)n3)c2C)no1`, the IC50 was > 50 µM (inactive).

Turning to `COc1cc(NC(=O)COC(=O)Cn2cnc3ccccc32)cc(OC)c1`, the IC50 is 40 µM.

Turning to `N#Cc1ccc(Cl)cc1NC(=O)COc1cccnc1[N+](=O)[O-]`, the concentration for half-maximal inhibition (IC50) is 49.8 µM.

`Cc1ccc(O)c(-c2cc(C(=O)Nc3ccccc3Cl)[nH]n2)c1`: the 50% inhibitory concentration (IC50) is 17.1 µM.

As for `Cc1nc(-c2ccc(C(=O)NCc3ccc(F)cc3)cc2)cs1`, the IC50 was 36.7 µM.

As for `CCOc1ccc(N2C(=O)c3ccccc3C2C(=O)NCc2ccccc2OC)cc1` (stereo unspecified), the IC50 was 29.8 µM.

Take `Cc1noc(NS(=O)(=O)c2ccc(NC(=O)CSc3ccc4ccccc4c3)cc2)c1C`: the IC50 is > 50 µM (inactive).

Turning to `COc1ccc(-c2nc(SCC(=O)Nc3ccc(C(C)=O)cc3)n[nH]2)cc1`, the IC50 was 15.5 µM.

With `COc1cccc2sc(N3CCN(c4nc5ccccc5s4)CC3)nc12`, the IC50 was > 50 µM (inactive).

In the case of `Cc1ccc(S(=O)(=O)c2cnc(SCC(=O)Nc3ccc(Cl)cc3)nc2N)cc1C`, the IC50 is 39.5 µM.

`Cc1nnc(NCc2cccnc2)c2c1nnn2Cc1ccccc1Cl`: the IC50 was 26.4 µM.

Consider `O=C(COC(=O)c1ccc2ncsc2c1)Nc1ccccc1F`, for which the IC50 was > 50 µM (inactive).

With `COc1ccc(C2C(C(=O)Nc3ccccc3OC)=C(C)Nc3nnnn32)cc1Br` (stereo unspecified), the IC50 is 23.2 µM.

With `CC(C)c1cc2c(c(O)c1O)[C@@]13CCCC(C)(C)[C@@H]1C[C@@H]2OC3=O`, the IC50 was 23.9 µM.

`O=C(Nc1cccc(Cl)c1)N1CCC(c2cc(-c3ccco3)n[nH]2)CC1`: the IC50 was 4.68 µM.

On to `Cc1nc(NCc2ccccn2)c2cc(-c3ccccc3)sc2n1`, for which the IC50 is 23.7 µM.

For `Nc1c(C(=O)Nc2ccc3c(c2)OCO3)sc2nc(-c3cccnc3)ccc12`, the IC50 is 1.98 µM.

As to `Cc1csc2ncc(C(=O)N3CCN(c4ccccc4F)CC3)c(=O)n12`, the IC50 is > 50 µM (inactive).

Turning to `O=C(NCc1ccc(F)cc1)C1CCCN(c2cnc3nccnc3c2)C1` (stereo unspecified), the IC50 is > 50 µM (inactive).

On to `CC1(C)C[C@@H](O)[C@]2(C)CC[C@]3(C)C(=CCC4[C@@]5(C)CC[C@H](O)[C@](C)(CO)[C@@H]5CC[C@]43C)[C@@H]2C1` (stereo partly specified), for which the IC50 is > 50 µM (inactive).

Turning to `Cn1nc(-c2nc(-c3ccccc3)no2)c2c1CCN(C(=O)C1CCCC1)C2`, the IC50 was 24.1 µM.

`O=C1CC(c2cc3c(cc2Br)OCO3)c2cc3c(cc2N1)OCCO3` (stereo unspecified): the IC50 was 14.9 µM.

With `COC(=O)c1cc(C)sc1NC(=O)c1cccc(OC)c1OC`, the IC50 is > 50 µM (inactive).

For the compound `C[C@]12C(=O)N(c3ccc(C(=O)NCc4ccc(F)cc4)cc3)C(=O)N1CCc1c2[nH]c2ccccc12`, the IC50 was 40.6 µM.

As to `COc1cccc(N2CCN(c3ccc4nnc(CCC(=O)N5CCc6ccccc6C5)n4n3)CC2)c1`, the half-maximal inhibitory concentration (IC50) was 22.8 µM.

Consider `Cc1ccc(NC(=O)c2ccc(Nc3nnc(C)c4ccccc34)cc2)cc1`, for which the IC50 is 6.02 µM.

As for `COc1cc(C(=O)Nc2ccc(-c3csc(C)n3)cc2)cc(OC)c1OC`, the IC50 is 4.04 µM.

For `CCOc1cccc(NC(=O)c2ccc(S(=O)(=O)N3CCc4ccccc4C3)cc2)c1`, the IC50 was 44.3 µM.

Regarding `Cn1c(=O)/c(=C/c2ccccc2)[nH]c(=O)/c1=C/c1ccccc1`, the 50% inhibitory concentration (IC50) was 10.2 µM.

With `O=C(Nc1ccncc1)c1ncoc1-c1cccc(Cl)c1`, the IC50 was 32.3 µM.

Take `Cn1cc(-c2cnc(-c3cccc(F)c3)nc2)cc1C(=O)NCc1cccnc1`: the IC50 is 36.8 µM.

For the compound `O=c1ccc(-c2noc(Cc3cccc(Cl)c3)n2)c[nH]1`, the IC50 is 0.0563 µM.
